According to patent US12343335B2, “Pharmaceutical composition for treating multiple sclerosis on basis of AMPK inhibitory function and zinc homeostasis control function” (ZINCURE CORP., priority 2019, dated 2025):

Legend:
mouse cortical neurons [1] = experiment: Apoptosis by etoposide (ETPS) in cortical neurons, LDH cytotoxicity; assay type: cell-based; conditions: etoposide 10 μM for 20 hours, compound 20 μM
Procedure: (§1) The mouse cortical neurons used in the present invention were extracted from the brain of a mouse embryo, and cultured in Dulbecco's modified Eagle's medium (DMEM, Gibco, Grand Island, NY, US) supplemented with 5% fetal bovine serum (FBS) and 5% horse serum (HS) under the condition of 95% humidity, 5% CO2 and 37° C. For activation and differentiation of the cells, the cells were grown to a density of 2×10^4 cells in a 24-well tissue culture plate and cultured in MEM medium without FBS and HS before treatment with zinc and compounds.
The present inventors investigated the inhibitory effect against neuronal cell death of the eight drugs and 1H10 of the above examples. Specifically, neurotoxicity due to apoptosis was induced by treatment with etoposide (ETPS, 10 μM) in mouse cortical neurons for 20 hours. Then, the selected 8 drugs and 1H10 were treated (20 μM) and LDH cytotoxicity was observed.

[2] = test system: cortical neurons of the cultured mice; experiment: Zinc toxicity in cortical neurons, cell viability assay (Cell Counting Kit-8); assay type: cell-based, mouse; conditions: ZnCl2 400 μM for 10 minutes, compound 20 μM
Procedure: as §1
According to an embodiment of the present invention, based on the structural similarity of 1H10 of the present invention, 25 similar compounds having a similar structure were purchased from a compound library manufacturer (InterBioScreen, Russia; Akos, Germany). Then, in order to induce zinc toxicity in the cortical neurons of the cultured mice, ZnCl2 (400 μM) was treated for 10 minutes, and after 12.5 hours, the selected 25 compounds and the previously selected drug 1H10 were treated (20 μM) and it was determined whether cell death was inhibited through cell viability assay (Cell Counting Kit-8, Dojindo).

mouse cortical neurons [3] = experiment: Excitotoxicity by NMDA in cortical neurons; assay type: cell-based; conditions: NMDA 50 μM for 3 hours
Procedure: as §1
The present inventors investigated the inhibitory effect against excitotoxicity of the eight drugs and 1H10 of the above examples. Specifically, excitotoxicity was induced by treatment with NMDA (N-methyl-D-aspartate, 50 μM) in mouse cortical neurons for 3 hours.

[4] = test system: mouse cortical neuron culture; experiment: Intrinsic toxicity in cortical neuron culture, LDH cytotoxicity; assay type: cell-based; conditions: 40 μM; for intrinsic toxicity in words: 48 hours of drug treatment
Procedure: as §1
Specifically, 40 μM of each of the drugs was treated in a mouse cortical neuron culture, and LDH cytotoxicity was observed after 24 or 48 hours.

mouse cortical neurons [5] = experiment: Oxidative stress by H2O2 in cortical neurons, LDH analysis; assay type: cell-based; conditions: H2O2 100 μM about 4 hours, compound 20 μM
Procedure: as §1
(§2) The present inventors investigated the inhibitory effect against oxidative stress in addition to zinc toxicity for the eight drugs and 1H10 of the above examples. Specifically, oxidative damage induced neurotoxicity by treating mouse cortical neurons with H2O2 (100 μM) and FeCl2 (100 μM) for about 4 hours and 20 hours, respectively, and treatment with the 8 selected drugs and 1H10 (20 μM). Thereafter, cytotoxicity was observed through LDH (Lactate Dehydrogenase) analysis.

mouse cortical neurons [6] = experiment: Oxidative damage by iron (FeCl2) in cortical neurons, LDH analysis; assay type: cell-based; conditions: FeCl2 100 μM about 20 hours, compound 20 μM
Procedure: as §1, §2

EAE = conditions: zinc chelator administrated to EAE animals; cited from earlier work
[7] = Zinc chelation in a test tube with FluoZin-3; assay type: binding; conditions: 1 μM zinc, 5 μM FluoZin-3, compared with 1H10
Procedure: The present inventors treated FluoZin-3, a substance illuminate fluorescence if it bind to free zinc to cultivated neurons in order to verify the possibility of zinc chelation according to the treatment of 1H10 {(Z)-5-((1H-indol-3-yl)methylene)-2-((3-hydroxyphenyl)amino)thiazol-4(5H)-one} according to an embodiment of the present invention, and then measured cytosolic zinc level in the neurons for 60 min after exposing zinc (300 μM) for 15 minutes and removing the zinc. In addition, 20 μM zinc (ZnCl2) and NewPort Green DCF fluorophore, which emits fluorescence when it bind to zinc, were added to the test tube, and 1H10 of the present invention was treated at various concentrations. Clioquinol, a zinc chelator, and calcium ionophore Phosphorus ionomycin was used as controls.
In addition, after reacting various concentrations of (0, 0.5, 1, 2, 5, 10, 20, 40 μM) 1H10 or clioquinol with 1 μM zinc and 5 μM fluorescent labeled drug for free zinc (FluoZin-3) in a test tube and fluorescence values were measured. […] 1H10 of the present invention binds zinc even at a lower concentration than clioquinol, but at a high concentration, zinc binding strength is considered to be lower than that of clioquinol (FIG. 5B).

| Compound | inhibitory effect against ETPS toxicity (LDH) (mouse cortical neurons [1]) | neuroprotective effect against zinc toxicity (cell viability) [2] | inhibition of excitotoxicity caused by NMDA (mouse cortical neurons [3]) | intrinsic toxicity in words [4] | inhibition of H2O2 toxicity (LDH) (mouse cortical neurons [5]) | intrinsic toxicity compared with 1H10 ([4]; 24 or 48 hours (time not specified)) | inhibition of oxidative damage caused by iron (LDH) (mouse cortical neurons [6]) | T cell infiltration that cause encephalitis (EAE) | demyelination and microglia activity in EAE (EAE) | final FluoZin-3 fluorescence value [7] |
| --- | --- | --- | --- | --- | --- | --- | --- | --- | --- | --- |
| Cc1ccc(NC2=NC(=O)/C(=C/c3c[nH]c4ccccc34)S2)cc1C [4B01, (5Z)-2-[(3,4-Dimethylphenyl)amino]-5-(1H-indol-3-ylmethylene)-1,3-thiazol-4(5H)-one] | significant inhibitory effect | neuroprotective effect | significantly inhibited | stronger intrinsic toxicity than 1H10 | significantly inhibit | – | – | – | – | – |
| Cc1cccc(NC2=NC(=O)/C(=C/c3c[nH]c4ccccc34)S2)c1C [4B04, (5Z)-2-[(2,3-Dimethylphenyl)amino]-5-(1H-indol-3-ylmethylene)-1,3-thiazol-4(5H)-one] | – | neuroprotective effect | – | – | significantly inhibit | – | – | – | – | – |
| CCCCc1ccc(NC2=NC(=O)/C(=C/c3c[nH]c4ccccc34)S2)cc1 [4C01, (Z)-5-((1H-indol-3-yl)methylene)-2-((4-butylphenyl)amino)thiazol-4(5H)-one] | significant inhibitory effect | neuroprotective effect | significantly inhibited | – | significantly inhibit | insignificant difference from 1H10 | – | – | – | – |
| Cc1ccc(/N=C2\NC(=O)/C(=C/c3c(C)[nH]c4ccccc34)S2)cc1 [4C03, (2E,5Z)-5-((2-methyl-1H-indol-3-yl)methylene)-2-(p-tolylimino)thiazolidin-4-one] | – | neuroprotective effect | significantly inhibited | – | significantly inhibit | – | – | – | – | – |
| Cc1ccc(/N=C2/NC(=O)/C(=C\c3c(C)[nH]c4ccccc34)S2)cc1 [4C04, (2Z,5E)-5-((2-methyl-1H-indol-3-yl)methylene)-2-(p-tolylimino)thiazolidin-4-one] | – | neuroprotective effect | significantly inhibited | – | significantly inhibit | – | – | – | – | – |
| O=C1N=C(Nc2ccccc2C(=O)O)S/C1=C/c1c[nH]c2ccccc12 [4C06, (E)-2-((5-((1H-indol-3-yl)methylene)-4-oxo-4,5-dihydrothiazol-2-yl)amino)benzoic acid] | significant inhibitory effect | neuroprotective effect | – | – | – | – | – | – | – | – |
| O=C1N=C(Nc2ccc(O)c(C(=O)O)c2)S/C1=C\c1c[nH]c2ccccc12 [4C08, (Z)-5-((5-((1H-indol-3-yl)methylene)-4-oxo-4,5-dihydrothiazol-2-yl)amino)-2-hydroxy benzoic acid] | significant inhibitory effect | neuroprotective effect | significantly inhibited | did not show intrinsic toxicity | – | – | inhibited | – | – | – |
| Oc1c(I)cc(Cl)c2cccnc12 [clioquinol] | – | – | – | – | – | – | – | inhibitored | reduced | lower |
